Measurements as given in US10653645B2, “Method for enhancing folding and transport of misfolded glucocerebrosidase” (The Hospital for Sick Children, priority 2007, dated 2020).
Like-named read-outs stand apart in the source and are kept apart here.

How the values were obtained:
wild type (WT) GCase = target: T1, wild type (WT) GCase (Homo sapiens, UniProt P04062, R534H); test: Heat denaturation of GCase at 50° C.; type: biochemical; conditions: for increase of the half life of GCase: 20 μM
T1 construct: purchased Genzyme
T1 sequence (P04062 40-536 R534H): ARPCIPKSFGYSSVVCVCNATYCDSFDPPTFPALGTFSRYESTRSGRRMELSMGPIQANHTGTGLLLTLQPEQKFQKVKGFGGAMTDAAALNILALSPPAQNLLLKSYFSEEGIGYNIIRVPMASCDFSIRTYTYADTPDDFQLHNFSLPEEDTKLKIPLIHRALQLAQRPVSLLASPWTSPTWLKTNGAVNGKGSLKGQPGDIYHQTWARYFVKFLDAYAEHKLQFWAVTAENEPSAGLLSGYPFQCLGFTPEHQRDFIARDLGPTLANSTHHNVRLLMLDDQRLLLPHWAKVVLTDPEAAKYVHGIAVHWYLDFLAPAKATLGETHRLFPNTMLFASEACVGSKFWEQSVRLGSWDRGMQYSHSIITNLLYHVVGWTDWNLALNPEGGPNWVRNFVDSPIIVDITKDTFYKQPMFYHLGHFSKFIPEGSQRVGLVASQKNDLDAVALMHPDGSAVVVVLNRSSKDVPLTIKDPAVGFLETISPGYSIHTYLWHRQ
Experimental: (§1) Experiments set forth herein and related to the activity and function of GCase in the presence and absence of compounds of the invention were conducted using imiglucerase (CEREZYME, Genzyme) as the GCase. Cellular materials were obtained from fibroblast lysates expressing wild-type GCase and separately from fibroblast lysates derived from Gaucher disease patient cell lines carrying genotypes that encode either the N370S/N370S or F213I/L444P substitutions in GCase.
(§2) Quantitative determinations of enzymatic activity were performed by way of fluorometric assays utilizing the artificial substrate 4-methylumbelliferyl 2-acetamido-2-deoxy-beta-D-glucopyranoside (MUGlc). Reactions were performed at room temperature for 15-30 minutes, as indicated, using equal aliquots of enzyme (25 μL 20 mM Citrate Phosphate pH 5.5, 0.4% Taurodeoxycholate (TC)) and substrate (25 μL 20 mM Citrate Phosphate pH 5.5, MUGlc 1.6 mM). The amount of MU-fluorophore released in each assay was monitored fluorometrically using a spectrophotofluorometer following the addition of a 4-fold (200 μl) excess of 0.1M MAP, pH 10.5.

[1] = target: T2, human beta-glucocerebrosidase (GCase, CEREZYME) (Homo sapiens, UniProt P04062, R534H); test: GCase activity fluorometric assay (inhibition, kinetics, pH dependence)
T2 sequence (P04062 40-536 R534H): T1 sequence (P04062 40-536 R534H)
Experimental: as §1, §2
The activity of GCase was also assayed at several different pH values, including 4.5, 5.0, 5.5, 6.0, 6.5 and 7.0.

[2] = system: Gaucher disease fibroblast cell lines harboring the N370S/N370S missense mutation; test: Immunohistochemical fluorescence labeling, colocalization of GCase and Lamp-1; type: cell-based, human; conditions: N370S/N370S fibroblasts
Experimental: Immunohistochemical fluorescence labeling of GD fibroblast cell lines harboring the N370S/N370S missense mutation were performed with rabbit polyclonal anti-GCase and mouse anti-Lamp-1 (lysosomal membrane associated protein). Cell nuclear staining was performed with 4′-6′-diamidino-2-phenylindole. […] (FIG. 6A, staining with anti-GCase in the presence of ABX; FIG. 6B, staining with anti-Lamp-1 in the presence of ABX; FIG. 6C, merger of FIGS. 6A and 6B; FIG. 6D, staining with anti-GCase in the presence of IFG; FIG. 6E, staining with anti-Lamp-1 in the presence of IFG; FIG. 6F, merger of FIGS. 6D and 6E; FIG. 6G, staining with anti-GCase in the absence of drug; FIG. 6H, staining with anti-Lamp-1 in the absence of drug; FIG. 6I, merger of FIGS. 6G and 6H.)
Immunohistochemical fluorescence labeling of Gaucher disease fibroblast cell lines harboring the N370S/N370S missense mutation was performed with rabbit polyclonal anti-GCase and mouse anti-Lamp-1 (lysosomal membrane associated protein). Cell nuclear staining was performed with 4′-6′-diamidino-2-phenylindole. […] Restored activity and trafficking of mutant GCase are the ultimate goals of a pharmacological chaperone-based therapeutic strategy.

For `Nc1c(Br)cc(Br)cc1CN[C@H]1CC[C@H](O)CC1` [Ambroxol, trans-4-(2-amino-3,5-dibromobenzylamino) cyclohexanol], the “increase of the half life of GCase” value (wild type (WT) GCase) was “more than three-fold”, the “increase in GCase activity remaining after incubation” value (wild type (WT) GCase; highest concentration of ambroxol, vs DMSO) was “more than three-fold” and the “inhibition of GCase under acidic conditions” value ([1]; 25 μM ambroxol, pH 4.5, 5.0, 5.5, 6.0, 6.5 and 7.0 assayed) was “only marginally inhibited”. The “mode of inhibition of GCase” value ([1]; kinetic analysis) was “competitive inhibitor” and the “Colocalization of GCase and Lamp-1 at the lysosome (rescue of mutant GCase trafficking)” value [2] was “Colocalization of GCase and Lamp-1 occurs at the lysosome”.

For `CN(Cc1cc(Br)cc(Br)c1N)C1CCCCC1` [Bromhexine, 2-amino-3,5-dibromo-N-cyclohexyl-N-methylbenzenemethanamine], the IC50 [1] was 60 µM and the “inhibitory activity compared with ambroxol” value ([1]; Table 2 IC50 values) was “two fold reduction”.

In the case of `Nc1ccc(Br)cc1Br` [Dibromoaniline], the IC50 ([1]; 0.3 mM MUbGlc as the substrate) is reported as “Dibromoaniline (NI −1000)”.

For `O=C(Nc1ccc(Br)cc1Br)c1ccccc1` [Dibromophenyl Benzamide], the IC50 [1] was over 1000 µM.

`Nc1c(Br)cc(Br)cc1Br` [Tribromoaniline] was tested, and the IC50 ([1]; 0.3 mM MUbGlc as the substrate) was “Tribromoaniline (NI −1000)”.

Work on `CCC(=O)Oc1c(Br)cc(Br)cc1Br` [Tribromophenyl Propanoate] yielded an IC50 [1] of over 1000 µM.

With `OC[C@H]1CNC[C@@H](O)[C@@H]1O` [isofagomine] the “increase of the half life of GCase” value (wild type (WT) GCase) was “more than three-fold”.
